What was measured:
[1] = test system: control (non-MRGPRX2 expressing) Chem-1 cells; test: Calcium mobilization (Fluo-4 AM) in control Chem-1 cells lacking the MRGPRX2 receptor; assay type: cell-based, human; settings: parent Chem-1 cells lacking MRGPRX2; FIG. 5B
Description: (§1) MRGPRX2 expressing and control (non-MRGPRX2 expressing) Chem-1 cells lines were obtained from Discovery Services, EuroFins. Cells were cultured in Dulbecco's Modified Eagle Medium (DMEM) high glucose medium (4.5 g/L) with 10% fetal bovine serum (FBS), non-essential amino acids, and N-2-hydroxyethylpiperazine-N′-2-ethanesulfonic acid (HEPES) buffer (pH 7.0-7.6). Geneticin (G418) was used for selection of MRGPRX2-expressing Chem-1 cells. Cells were maintained at 37° C. at 5% CO2. Cells were seeded to a glass bottom 96-well plates at a density of 50,000 per well (Cellvis). Cells were loaded with Fluo-4 AM for 30 minutes at 37° C. at a concentration of 2.5 μM. Cells were washed once with Dulbecco's phosphate buffered saline (DPBS). Cells were rested at room temperature for 30 minutes before use and washed with DPBS. Cells were resuspended in 50 μL phosphate buffered saline (PBS) with calcium and magnesium. To stimulate cells, 50 μL of 2× drug (bevemipretide or leuprolide) or DPBS as a control. Plates were read immediately with a Biotek plate reader. Readings were taken every 6 seconds for 2 minutes.
(§2) This assay was designed as a calcium-based readout of receptor activity.

[2] = Phase 1 human clinical trial, subcutaneous administration; assay type: in vivo; settings: phase 1, subcutaneous administration
[3] = Long term toxicology studies in rats, subcutaneous administration; assay type: in vivo
[4] = Long term toxicology studies of non-human primates; assay type: in vivo
human MRGPRX2 [5] = biological target: T1, human MRGPRX2 (Homo sapiens, UniProt Q96LB1); test: Calcium mobilization (Fluo-4 AM) in MRGPRX2 expressing Chem-1 cells; assay type: cell-based; design: host or cells: Chem-1 cells (G418-selected); settings: for activation of the MRGPRX2 expressing cells (calcium response): MRGPRX2 expressing Chem-1 cells, FIG. 5A, FIG. 6; for inhibition of the activation of the MRGPRX2 receptor caused by bevemipretide: MRGPRX2 expressing cells with 100 μM of bevemipretide, FIGS. 7A and 7B
T1 sequence (Q96LB1 1-330): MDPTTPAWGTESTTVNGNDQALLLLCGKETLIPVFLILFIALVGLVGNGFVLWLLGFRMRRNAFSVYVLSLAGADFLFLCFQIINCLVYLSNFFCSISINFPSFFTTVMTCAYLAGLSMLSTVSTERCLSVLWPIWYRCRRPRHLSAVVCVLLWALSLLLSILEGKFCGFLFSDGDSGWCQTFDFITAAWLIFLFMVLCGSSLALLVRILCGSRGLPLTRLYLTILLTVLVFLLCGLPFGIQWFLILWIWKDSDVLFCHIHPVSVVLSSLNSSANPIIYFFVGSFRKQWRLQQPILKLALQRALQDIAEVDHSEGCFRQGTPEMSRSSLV
Description: as §1, §2

human MRGPRX2 [6] = biological target: T1, human MRGPRX2; test: Fluo-4 calcium assay in HEK293 cells stably expressing human MRGPRX2 and Galpha15 (fluorescent plate reader); assay type: cell-based; design: expressed in transfected cells; host or cells: clonal HEK293 cell line; settings: calcium response, multiple runs, FIG. 4
Description: A clonal HEK293 cell line stably expressing human MRGPRX2 and Galpha15 was used for the assay, which was performed using a fluorescent plate reader. Cells were plated at 40,000 cells per well in a glass-bottom 96 well plate 20 hours before the assay. Cells were loaded with N-[4-[6-[(Acetyloxy)methoxy]-2,7-difluoro-3-oxo-3H-xanthen-9-yl]-2-[2-[2-[bis[2-[(acetyloxy)methoxy]-2-oxoethyl]amino]-5-methylphenoxy]ethoxy]phenyl]-N-[2-[(acetyloxy)methoxy]-2-oxoethyl]glycine (acetyloxy)methyl ester (Fluo-4 AM) for 45 minutes at 37°° C. and allowed to rest for 30 minutes before use. Baseline fluorescence was calculated as the average of a 30 second read, with data points taken at 5 second intervals. Response was defined as the maximum signal within 90 seconds after addition of bevemipretide, subtracted by the baseline fluorescence signal. Concentrations were tested in duplicate and the assay was run 6 times. The curve was calculated as a four-parameter non-linear fit with variable slope. Traces were obtained using the same cell line and same Fluo-4 AM loading protocol but were imaged using a fluorescence microscope using a standard fluorescein isothiocyanate (FITC) filter. Fluorescence for different cells was calculated using region of interest selections.

Row | Structure (SMILES) | effect on cells lacking the MRGPRX2 receptor (calcium response) [1] | activation of the MRGPRX2 expressing cells (calcium response) (human MRGPRX2 [5]) | inhibition of the activation of the MRGPRX2 receptor caused by bevemipretide (human MRGPRX2 [5]) | other results
1 | Cc1cc(O)cc(C)c1C[C@H](NC(=O)[C@H](N)CCCNC(=N)N)C(=O)N[C@@H](CCCCN)c1nc(Cc2ccccc2)no1 [bevemipretide] | no effect | dose dependent activation |  | injection site reactions [2]: injection site reactions were observed as an adverse event; injection site reactions [3]: injection site reactions were observed from subcutaneous administration; some being severe at the higher dose levels administered; injection site reactions [4]: generally not severe even at the highest dosages tested; EC50 (human MRGPRX2 [6]): 43.8 to 54.1 µM
2 | CCNC(=O)[C@@H]1CCCN1C(=O)[C@H](CCCNC(=N)N)NC(=O)[C@H](CC(C)C)NC(=O)[C@@H](CC(C)C)NC(=O)[C@H](Cc1ccc(O)cc1)NC(=O)[C@H](CO)NC(=O)[C@H](Cc1c[nH]c2ccccc12)NC(=O)[C@H](Cc1c[nH]cn1)NC(=O)[C@@H]1CCC(=O)N1 [leuprolide] |  | dose dependent activation |  | 
3 | C[C@H](CCC(=O)O)C[C@H](C)C[C@H](C)C(=O)/C=C(\O)[C@H](C)C[C@H](C)C/C=C/[C@@H](C)[C@@H](O)[C@@H](C)[C@@H](O)C[C@@H]1CC[C@@](C)([C@H]2CC[C@@](C)([C@@H](C)O)O2)O1 [Ionomycin, reference compound] | generates a calcium response | generates a calcium response |  | 
4 | C[C@@H]1C[C@H]2[C@@H]3CCC4=CC(=O)C=C[C@]4(C)[C@@]3(Cl)[C@@H](O)C[C@]2(C)[C@@]1(O)C(=O)CCl [monetasone, mometasone] |  |  | in a dose-dependent manner, inhibit the activation | 
5 | O=c1c(O)c(-c2ccc(O)c(O)c2)oc2cc(O)cc(O)c12 [quercetin, 3,3′,4′,5,7-pentahydroxyflavone] |  |  | in a dose-dependent manner, inhibit the activation | 

Reference: patent US20250057805A1, “METHODS FOR ADDRESSING INJECTION SITE REACTIONS ASSOCIATED WITH THE ADMINISTRATION OF BEVEMIPRETIDE” (Stealth BioTherapeutics Inc., priority 2023, published 2025)
